According to ChEMBL document CHEMBL6127104, “Prorocentin-5: A Cytotoxic Polyketide from the Benthic Marine Dinoflagellate Prorocentrum lima” (J Nat Prod, 2024):

Columns and labels:
Assay type in all cases: functional
HCT-116 [1] = assay: Induction of apoptosis in human HCT-116 cells assessed as viable cells at 0.1 uM incubated for 24 hrs by Annexin V-FITC/PI staining based flow cytometric analysis (reference value: 90.50 %); settings: read-out: Activity
HCT-116 [2] = assay: Induction of apoptosis in human HCT-116 cells assessed as early apoptotic cells at 0.1 uM incubated for 24 hrs by Annexin V-FITC/PI staining based flow cytometric analysis (reference value: 1.90 %)
HCT-116 [3] = assay: Induction of apoptosis in human HCT-116 cells assessed as late apoptotic cells at 0.1 uM incubated for 24 hrs by Annexin V-FITC/PI staining based flow cytometric analysis (reference value: 6.15 %)
HCT-116 [4] = assay: Induction of apoptosis in human HCT-116 cells assessed as necrotic cells at 0.1 uM incubated for 24 hrs by Annexin V-FITC/PI staining based flow cytometric analysis (reference value: 1.45 %)
HCT-116 [5] = assay: Induction of apoptosis in human HCT-116 cells assessed as viable cells at 1 uM incubated for 24 hrs by Annexin V-FITC/PI staining based flow cytometric analysis (reference value: 90.50 %); settings: read-out: Activity
HCT-116 [6] = assay: Induction of apoptosis in human HCT-116 cells assessed as early apoptotic cells at 1 uM incubated for 24 hrs by Annexin V-FITC/PI staining based flow cytometric analysis (reference value: 1.90 %)
HCT-116 [7] = assay: Induction of apoptosis in human HCT-116 cells assessed as late apoptotic cells at 1 uM incubated for 24 hrs by Annexin V-FITC/PI staining based flow cytometric analysis (reference value: 6.15 %)
HCT-116 [8] = assay: Induction of apoptosis in human HCT-116 cells assessed as necrotic cells at 1 uM incubated for 24 hrs by Annexin V-FITC/PI staining based flow cytometric analysis (reference value: 1.45 %)
N2a [9] = assay: Induction of apoptosis in mouse Neuro2a cells assessed as viable cells at 0.1 uM incubated for 24 hrs by Annexin V-FITC/PI staining based analysis (reference value: 91.70 %); settings: read-out: Activity
N2a [10] = assay: Induction of apoptosis in mouse Neuro2a cells assessed as early apoptotic cells at 0.1 uM incubated for 24 hrs by Annexin V-FITC/PI staining based analysis (reference value: 3.17 %)
N2a [11] = assay: Induction of apoptosis in mouse Neuro2a cells assessed as late apoptotic cells at 0.1 uM incubated for 24 hrs by Annexin V-FITC/PI staining based analysis (reference value: 0.81 %)
N2a [12] = assay: Induction of apoptosis in mouse Neuro2a cells assessed as necrotic cells at 0.1 uM incubated for 24 hrs by Annexin V-FITC/PI staining based analysis (reference value: 4.33 %)
N2a [13] = assay: Induction of apoptosis in mouse Neuro2a cells assessed as viable cells at 1 uM incubated for 24 hrs by Annexin V-FITC/PI staining based analysis (reference value: 91.70 %); settings: read-out: Activity
N2a [14] = assay: Induction of apoptosis in mouse Neuro2a cells assessed as early apoptotic cells at 1 uM incubated for 24 hrs by Annexin V-FITC/PI staining based analysis (reference value: 3.17 %)
N2a [15] = assay: Induction of apoptosis in mouse Neuro2a cells assessed as late apoptotic cells at 1 uM incubated for 24 hrs by Annexin V-FITC/PI staining based analysis (reference value: 0.81 %)
N2a [16] = assay: Induction of apoptosis in mouse Neuro2a cells assessed as necrotic cells at 1 uM incubated for 24 hrs by Annexin V-FITC/PI staining based analysis (reference value: 4.33 %)
HepG2 [17] = assay: Induction of apoptosis in human HepG2 cells assessed as viable cells at 0.1 uM incubated for 24 hrs by Annexin V-FITC/PI staining based flow cytometric analysis (reference value: 90.08 %); settings: read-out: Activity
HepG2 [18] = assay: Induction of apoptosis in human HepG2 cells assessed as early apoptotic cells at 0.1 uM incubated for 24 hrs by Annexin V-FITC/PI staining based flow cytometric analysis (reference value: 4.85 %)
HepG2 [19] = assay: Induction of apoptosis in human HepG2 cells assessed as late apoptotic cells at 0.1 uM incubated for 24 hrs by Annexin V-FITC/PI staining based flow cytometric analysis (reference value: 2.05 %)
HepG2 [20] = assay: Induction of apoptosis in human HepG2 cells assessed as necrotic cells at 0.1 uM incubated for 24 hrs by Annexin V-FITC/PI staining based flow cytometric analysis (reference value: 3.02 %)
HepG2 [21] = assay: Induction of apoptosis in human HepG2 cells assessed as viable cells at 1 uM incubated for 24 hrs by Annexin V-FITC/PI staining based flow cytometric analysis (reference value: 90.08 %); settings: read-out: Activity
HepG2 [22] = assay: Induction of apoptosis in human HepG2 cells assessed as early apoptotic cells at 1 uM incubated for 24 hrs by Annexin V-FITC/PI staining based flow cytometric analysis (reference value: 4.85 %)
HepG2 [23] = assay: Induction of apoptosis in human HepG2 cells assessed as late apoptotic cells at 1 uM incubated for 24 hrs by Annexin V-FITC/PI staining based flow cytometric analysis (reference value: 2.05 %)
HepG2 [24] = assay: Induction of apoptosis in human HepG2 cells assessed as necrotic cells at 1 uM incubated for 24 hrs by Annexin V-FITC/PI staining based flow cytometric analysis (reference value: 3.02 %)
HCT-116 [25] = assay: Induction of apoptosis in human HCT-116 cells assessed as fold increase in early apoptotic cells at 1 uM incubated for 24 hrs by Annexin V-FITC/PI staining based analysis
N2a [26] = assay: Induction of apoptosis in mouse Neuro2a cells assessed as fold increase in early apoptotic cells at 1 uM incubated for 24 hrs by Annexin V-FITC/PI staining based analysis
HepG2 [27] = assay: Induction of apoptosis in human HepG2 cells assessed as fold increase in early apoptotic cells at 1 uM incubated for 24 hrs by Annexin V-FITC/PI staining based flow cytometric analysis
HCT-116 [28] = assay: Induction of apoptosis in human HCT-116 cells assessed as fold increase in late apoptotic cells at 1 uM incubated for 24 hrs by Annexin V-FITC/PI staining based analysis
N2a [29] = assay: Induction of apoptosis in mouse Neuro2a cells assessed as fold increase in late apoptotic cells at 1 uM incubated for 24 hrs by Annexin V-FITC/PI staining based analysis
HepG2 [30] = assay: Induction of apoptosis in human HepG2 cells assessed as fold increase in late apoptotic cells at 1 uM incubated for 24 hrs by Annexin V-FITC/PI staining based flow cytometric analysis
HCT-116 [31] = assay: Induction of cell cycle arrest in human HCT-116 cells assessed as accumulation of cells at G0/G1 phase at 0.1 uM incubated for 24 hrs by flow cytometric analysis (reference value: 90.2 %)
HCT-116 [32] = assay: Induction of cell cycle arrest in human HCT-116 cells assessed as accumulation of cells at S phase at 0.1 uM incubated for 24 hrs by flow cytometric analysis (reference value: 19.2 %)
HCT-116 [33] = assay: Induction of cell cycle arrest in human HCT-116 cells assessed as accumulation of cells at G2/M phase at 0.1 uM incubated for 24 hrs by flow cytometric analysis (reference value: 30.6 %)
HCT-116 [34] = assay: Induction of cell cycle arrest in human HCT-116 cells assessed as accumulation of cells at G0/G1 phase at 1 uM incubated for 24 hrs by flow cytometric analysis (reference value: 90.2 %)
HCT-116 [35] = assay: Induction of cell cycle arrest in human HCT-116 cells assessed as accumulation of cells at S phase at 1 uM incubated for 24 hrs by flow cytometric analysis (reference value: 19.2 %)
HCT-116 [36] = assay: Induction of cell cycle arrest in human HCT-116 cells assessed as accumulation of cells at G2/M phase at 1 uM incubated for 24 hrs by flow cytometric analysis (reference value: 30.6 %)
N2a [37] = assay: Induction of cell cycle arrest in mouse Neuro2a cells assessed as accumulation of cells at G0/G1 phase at 0.1 uM incubated for 24 hrs by flow cytometric analysis (reference value: 61.5 %)
N2a [38] = assay: Induction of cell cycle arrest in mouse Neuro2a cells assessed as accumulation of cells at S phase at 0.1 uM incubated for 24 hrs by flow cytometric analysis (reference value: 30.5 %)
N2a [39] = assay: Induction of cell cycle arrest in mouse Neuro2a cells assessed as accumulation of cells at G2/M phase at 0.1 uM incubated for 24 hrs by flow cytometric analysis (reference value: 8.0 %)
N2a [40] = assay: Induction of cell cycle arrest in mouse Neuro2a cells assessed as accumulation of cells at G0/G1 phase at 1 uM incubated for 24 hrs by flow cytometric analysis (reference value: 61.5 %)
N2a [41] = assay: Induction of cell cycle arrest in mouse Neuro2a cells assessed as accumulation of cells at S phase at 1 uM incubated for 24 hrs by flow cytometric analysis (reference value: 30.5 %)
N2a [42] = assay: Induction of cell cycle arrest in mouse Neuro2a cells assessed as accumulation of cells at G2/M phase at 1 uM incubated for 24 hrs by flow cytometric analysis (reference value: 8.0 %)
HepG2 [43] = assay: Induction of cell cycle arrest in human HepG2 cells assessed as accumulation of cells at G2/M phase at 0.1 uM incubated for 24 hrs by flow cytometric analysis (reference value: 6.7 %)
HepG2 [44] = assay: Induction of cell cycle arrest in human HepG2 cells assessed as accumulation of cells at G0/G1 phase at 0.1 uM incubated for 24 hrs by flow cytometric analysis (reference value: 66.4 %)
HepG2 [45] = assay: Induction of cell cycle arrest in human HepG2 cells assessed as accumulation of cells at S phase at 0.1 uM incubated for 24 hrs by flow cytometric analysis (reference value: 27.8 %)
HepG2 [46] = assay: Induction of cell cycle arrest in human HepG2 cells assessed as accumulation of cells at G0/G1 phase at 1 uM incubated for 24 hrs by flow cytometric analysis (reference value: 66.4 %)
HepG2 [47] = assay: Induction of cell cycle arrest in human HepG2 cells assessed as accumulation of cells at S phase at 1 uM incubated for 24 hrs by flow cytometric analysis (reference value: 27.8 %)
HepG2 [48] = assay: Induction of cell cycle arrest in human HepG2 cells assessed as accumulation of cells at G2/M phase at 1 uM incubated for 24 hrs by flow cytometric analysis (reference value: 27.8 %)

In the case of C=C1[C@@H](O)[C@@H]2O[C@]3(CC[C@H](/C=C/[C@@H](C)[C@@H]4CC(C)=C[C@@]5(O[C@H](C[C@@](C)(O)C(=O)O)CC[C@H]5O)O4)O3)CC[C@H]2O[C@@H]1[C@@H](O)C[C@H](C)[C@H]1O[C@@]2(CCCCO2)CC[C@H]1C [OKADAIC ACID], the viability at 0.1 µM (HCT-116 [1]) is reported as 79.2%, the Activity (HCT-116 [2]) is reported as 0.8% and the Activity (HCT-116 [3]) is reported as 7.55%. The Activity (HCT-116 [4]) was 12.45%, the viability at 1 µM (HCT-116 [5]) was 59.7% and the Activity (HCT-116 [6]) was 3.65%. For the same molecule, the Activity (HCT-116 [7]) was 16.9%, the Activity (HCT-116 [8]) was 19.75% and the viability at 0.1 µM (N2a [9]) was 76.4%. For the same molecule, the Activity (N2a [10]) was 10.91%, the Activity (N2a [11]) was 7.75% and the Activity (N2a [12]) was 4.9%. The viability at 1 µM (N2a [13]) was 59.7%, the Activity (N2a [14]) was 29.01% and the Activity (N2a [15]) was 10.7%. For the same molecule, the Activity (N2a [16]) was 0.57%, the viability at 0.1 µM (HepG2 [17]) was 52.7% and the Activity (HepG2 [18]) was 13.5%. For the same molecule, the Activity (HepG2 [19]) was 24.73%, the Activity (HepG2 [20]) was 9.05% and the viability at 1 µM (HepG2 [21]) was 50.9%. It also gave an Activity (HepG2 [22]) of 23.72%, an Activity (HepG2 [23]) of 22.44% and an Activity (HepG2 [24]) of 2.92%. The “fold change (FC)” value (HCT-116 [25]) was 1.9, the “fold change (FC)” value (N2a [26]) was 9.2 and the “fold change (FC)” value (HepG2 [27]) was 4.9. For the same molecule, the “fold change (FC)” value (HCT-116 [28]) was 2.8, the “fold change (FC)” value (N2a [29]) was 13.2 and the “fold change (FC)” value (HepG2 [30]) was 11. It also gave an Activity (HCT-116 [31]) of 32.2%, an Activity (HCT-116 [32]) of 23% and an Activity (HCT-116 [33]) of 44.6%. For the same molecule, the Activity (HCT-116 [34]) was 55.5%, the Activity (HCT-116 [35]) was 23.9% and the Activity (HCT-116 [36]) was 20.4%. For the same molecule, the Activity (N2a [37]) was 30.4%, the Activity (N2a [38]) was 56.6% and the Activity (N2a [39]) was 13%. The Activity (N2a [40]) was 36%, the Activity (N2a [41]) was 55% and the Activity (N2a [42]) was 8.1%. For the same molecule, the Activity (HepG2 [43]) was 14.6%, the Activity (HepG2 [44]) was 48.5% and the Activity (HepG2 [45]) was 36.8%. For the same molecule, the Activity (HepG2 [46]) was 49.5%, the Activity (HepG2 [47]) was 37.2% and the Activity (HepG2 [48]) was 13.3%.
